Where only a bound is given, the exact number is not on record here.

One may read the IC50 as the concentration at which inhibition is half-maximal.

The target of the assay is Bcl-2-like protein 1 (Homo sapiens, UniProt Q07817). Briefly: Fluorescence Polarization Assay. As to conditions: pH 8; 22 °C. On the procedure: In the fluorescence polarization assay, the Bcl-XL protein is incubated with a fluorescein-tagged Bak-BH3 peptide. The Bcl-XL:Bak-BH3 peptide complex is then titrated with the test compounds, and the displacement of the Bak-BH3 peptide is measured as a function of decreasing polarized fluorescence. The fluorescence polarization values were determined using a Tecan GeniosPro plate reader using the excitation/emission wavelengths 485/535 nm. The binding affinities are reported as the inhibitory concentration of the titrant required to displace 50% of the Bak-BH3 peptide (IC50).
Sequence of Bcl-2-like protein 1 (Q07817 whole entry): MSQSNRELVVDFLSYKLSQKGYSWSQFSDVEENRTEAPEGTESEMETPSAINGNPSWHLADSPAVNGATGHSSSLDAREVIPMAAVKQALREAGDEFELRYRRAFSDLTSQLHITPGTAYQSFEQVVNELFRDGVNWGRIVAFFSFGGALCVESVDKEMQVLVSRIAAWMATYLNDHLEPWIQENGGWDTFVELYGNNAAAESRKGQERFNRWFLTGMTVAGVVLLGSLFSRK
In general terms: Fluorescence polarisation rises when a labelled molecule tumbles more slowly, as on binding a larger partner.
`COc1ccc2c(c[n+](C)c3c4cc5c(cc4ccc23)OCO5)c1OC` gave an IC50 of 100 µM.

Regarding `C[n+]1cc2c3c(ccc2c2ccc4cc5c(cc4c21)OCO5)OCO3`, the IC50 amounted to 19 µM.

`COc1ccc2c(c[n+](C)c3ccc(CO)cc23)c1OC` [2-(hydroxymethyl)-7,8-dimethoxy-5-methylphenanthridin-5-ium chloride] registered an IC50 above 100 µM.

With `C[n+]1cc2c3c(ccc2c2cc(CCO)ccc21)OCO3` [4-(2-hydroxyethyl)-8-methyl-12,14-dioxa-8-azatetracyclo[8.7.0.0^{2,7}.0^{11,15}]heptadeca-1(10),2(7),3,5,8,11(15),16-heptaen-8-ium chloride], the IC50 was 3 µM.

`COCCc1ccc2c(c1)c1ccc3c(c1c[n+]2C)OCO3` [4-(2-methoxyethyl)-8-methyl-12,14-dioxa-8-azatetracyclo[8.7.0.0^{2,7}.0^{11,15}]heptadeca-1(10),2(7),3,5,8,11(15),16-heptaen-8-ium chloride] displayed an IC50 of 6 µM.

With `C[n+]1cc2c3c(ccc2c2cc(CO)ccc21)OCO3` [4-(hydroxymethyl)-8-methyl-12,14-dioxa-8-azatetracyclo[8.7.0.0^{2,7}.0^{11,15}]heptadeca-1(10),2(7),3,5,8,11(15),16-heptaen-8-ium chloride], the IC50 was determined as 11 µM.

Take `COCc1ccc2c(c1)c1ccc3c(c1c[n+]2C)OCO3` [4-(methoxymethyl)-8-methyl-12,14-dioxa-8-azatetracyclo[8.7.0.0^{2,7}.0^{11,15}]heptadeca-1(10),2(7),3,5,8,11(15),16-heptaen-8-ium chloride]: the IC50 is 11 µM.

For the molecule `Cn1cc2c(=O)c(O)ccc-2c2cc(CCO)ccc21` [7,8-dihydroxy-2-(2-hydroxyethyl)-5-methylphenanthridin-5-ium chloride], half-maximal inhibition (IC50) was put at 22 µM.

As for `Cn1cc2c(=O)c(O)ccc-2c2cc(CO)ccc21` [7,8-dihydroxy-2-(hydroxymethyl)-5-methylphenanthridin-5-ium chloride], half-maximal inhibition (IC50) was put at 20 µM.

`Cn1cc2c(=O)c(O)ccc-2c2ccccc21` [7,8-dihydroxy-5-methylphenanthridin-5-ium chloride] showed an IC50 of 18 µM.

`COc1ccc2c(c[n+](C)c3ccccc23)c1OC` [7,8-dimethoxy-5-methylphenanthridin-5-ium iodide]: the IC50 was above 100 µM.

Molecule `COc1ccc2c(c[n+]([O-])c3ccccc23)c1OC` [7,8-dimethoxy-5-oxidophenanthridin-5-ium] returned a concentration for half-maximal inhibition (IC50) above 100 µM.

`C[n+]1cc2c3c(ccc2c2ccccc21)OC(C)(C)O3` [8,13,13-trimethyl-12,14-dioxa-8-azatetracyclo[8.7.0.0^{2,7}.0^{11,15}]heptadeca-1(10),2(7),3,5,8,11(15),16-heptaen-8-ium iodide] registered an IC50 above 100 µM.

`C[n+]1cc2c3c(ccc2c2ccccc21)OCO3` [8-methyl-12,14-dioxa-8-azatetracyclo[8.7.0.0^{2,7}.0^{11,15}]heptadeca-1(10),2(7),3,5,8,11(15),16-heptaen-8-ium iodide] registered an IC50 of 12 µM.

As to `[O-][n+]1cc2c3c(ccc2c2ccccc21)OCO3` [8-oxido-12,14-dioxa-8-azatetracyclo[8.7.0.0^{2,7}.0^{11,15}]heptadeca-1(10),2(7),3,5,8,11(15),16-heptaen-8-ium], the 50% inhibitory concentration (IC50) is above 100 µM.

Take `CC1(C)Oc2ccc3c(c[n+]([O-])c4ccccc34)c2O1` [13,13-dimethyl-8-oxido-12,14-dioxa-8-azatetracyclo[8.7.0.0^{2,7}.0^{11,15}]heptadeca-1(10),2(7),3,5,8,11(15),16-heptaen-8-ium]: the IC50 was above 100 µM.

Values taken from BindingDB's records for doi:10.1021/jm8005433 (A* Star, 2008).
